Assay results: patent publication US10738062B2, “Chromane-substituted tetracyclic compounds and uses thereof for the treatment of viral diseases” (Merck Sharp & Dohme Corp., priority 2016, dated 2020)
Like-named read-outs stand apart in the source and are kept apart here.

Tests used:
Parameters in all cases: species or system Hepatitis C virus
HCV replicon 1B = experiment: Cell-based HCV replicon assay (Replicon Assay B), replicon 1B; details: replicon RNA by real-time PCR, 3 days
Protocol: In an alternate assay (“Replicon Assay B”), 1000 cells were seeded per well in a 384-well collagen coated black plate from Greiner bio-one (Cat #781946) in 5% FBS. Inhibitors of this invention were added at 24 h post-seeding, and the plates were incubated for 3 days. Cells were subsequently lysed with Qiagen lysis buffer (Cat #1062731) to extract the RNA. HCV replicon RNA level was measured by real-time PCR using the RNA-to-CT kit from Applied Biosystem (Cat #4392656) and genotype-specific primers and probes. The amplicon was located within NS5B. […] (SEQ. ID NO. 2); the probe sequence was FAM-labeled […] (SEQ. ID NO. 3).
The real-time RT-PCR reactions were run on ABI PRISM 7900HT or Viia7 Sequence Detection System using the following program: 48° C. for 30 minutes, 95° C. for 10 minutes, 40 cycles of 95° C. for 15 sec, 60° C. for 1 minutes.
EC50 data for replicons 1A, 1AY93H and 2B were obtained using Replicon Assay A and EC50 data for replicon 1B was obtained using Replicon Assay B.

HCV replicon 1A Y93H = experiment: Cell-based HCV replicon assay (Replicon Assay A), replicon 1AY93H; details: replicon RNA by real time PCR, day 3
Outline: (§1)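 Replicon cells were seeded at 2000/well with compound, 10 serial dilutions starting at 333.3 nM to 1.667 nM, in 0.5% DMSO and 5% FBS, then harvested on day 3. Replicon RNA was measured by multiplex TaqMan RT-PCR with cyclophilin as endogenous control. EC50 is the concentration raising Ct by 1 over projected baseline.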

HCV replicon 2B = experiment: Cell-based HCV replicon assay (Replicon Assay A), replicon 2B; details: replicon RNA by real time PCR, day 3
Outline: as §1

HCV replicon 1A = experiment: Cell-based HCV replicon assay (Replicon Assay A), replicon 1A; details: replicon RNA by real time PCR, day 3
Outline: as §1

[1] = read-out: EC50 replicon 1A Y93H, Replicon Assay A
[2] = read-out: EC50 replicon 2B, Replicon Assay A
[3] = Hepatitis C virus, 72 h, read-out: EC50 replicon 1A Y93H, Replicon Assay A
[4] = Hepatitis C virus, 72 h, read-out: EC50 replicon 2B, Replicon Assay A

SMILES | EC50 (HCV replicon 1B; Hepatitis C virus, 72 h) | EC50 (HCV replicon 1A Y93H; [1]) | EC50 (HCV replicon 2B; [2]) | EC50 (HCV replicon 1A) | EC50 (HCV replicon 1A; Hepatitis C virus, 72 h) | EC50 (HCV replicon 1B) | EC50 (HCV replicon 1A Y93H; [3]) | EC50 (HCV replicon 2B; [4])
COC(=O)N[C@H](C(=O)N1CCC[C@H]1c1ncc(-c2ccc3c(c2)OC(c2ccc4c(c2)OCCC4)n2c-3cc3cc(-c4cnc([C@@H]5C[C@H]6C[C@H]6N5C(=O)[C@@H](NC(=O)OC)C(C)C)[nH]4)ccc32)[nH]1)C(C)C (single isomer, unassigned) [Compound 50] | 1.4 pM | 60 pM | 36 pM | 1.4 pM |  |  |  | 
COC(=O)N[C@H](C(=O)N1CCC[C@H]1c1ncc(-c2ccc3c(c2)OC(c2ccc4c(c2)CCCO4)n2c-3cc3cc(-c4cnc([C@@H]5C[C@H]6C[C@H]6N5C(=O)[C@@H](NC(=O)OC)C(C)C)[nH]4)ccc32)[nH]1)C(C)C (single isomer, unassigned) [Compound 51] | 2.5 pM | 2130 pM | 4770 pM |  | 1.9 pM |  |  | 
COC(=O)N[C@H](C(=O)N1CCC[C@H]1c1ncc(-c2ccc3c(c2)OC(c2ccc4c(c2)CCCO4)n2c-3cc3cc(-c4cnc([C@@H]5C[C@H]6C[C@H]6N5C(=O)[C@@H](NC(=O)OC)C(C)C)[nH]4)ccc32)[nH]1)C(C)C (single isomer, unassigned) [Compound 52] |  | 454 pM | 1670 pM | 2.2 pM |  | 3.1 pM |  | 
CCN(CC)[C@@H](C(=O)N1[C@@H]2C[C@@H]2C[C@H]1c1ncc(-c2ccc3c(c2)cc2n3C(c3ccc4c(c3)OCCC4)Oc3cc(-c4cnc([C@@H]5CCCN5C(=O)[C@@H](NC(=O)OC)C5CCOCC5)[nH]4)cc(F)c3-2)[nH]1)c1ccccc1 (single isomer, unassigned) [Compound 54] | 2.4 pM |  | 11 pM |  | 4.9 pM |  | 8 pM | 
COC(=O)NC(C(=O)N1CCC[C@H]1c1ncc(-c2ccc3c(c2)cc2n3C(c3ccc4c(c3)OC(C)CC4)Oc3cc(-c4cnc([C@@H]5CCCN5C(=O)[C@@H](NC(=O)OC)C(C)C)[nH]4)cc(F)c3-2)[nH]1)C1C[C@@H](C)O[C@@H](C)C1 (single isomer, unassigned) [Compound 59] | 2.7 pM | 15 pM | 17 pM | 3.2 pM |  |  |  | 
COC(=O)NC(C(=O)N1CCC[C@H]1c1ncc(-c2ccc3c(c2)cc2n3C(c3ccc4c(c3)OC(C)CC4)Oc3cc(-c4cnc([C@@H]5CCCN5C(=O)[C@@H](NC(=O)OC)C(C)C)[nH]4)cc(F)c3-2)[nH]1)C1C[C@@H](C)O[C@@H](C)C1 (single isomer, unassigned) [Compound 60] |  | 20 pM | 25 pM | 3 pM |  | 3.1 pM |  | 
COC(=O)NC(C(=O)N1CCC[C@H]1c1ncc(-c2ccc3c(c2)cc2n3C(c3ccc4c(c3)OC(C)CC4)Oc3cc(-c4cnc([C@@H]5CCCN5C(=O)[C@@H](NC(=O)OC)C(C)C)[nH]4)cc(F)c3-2)[nH]1)C1CCOC(C)(C)C1 (single isomer, unassigned) [Compound 63] | 2 pM | 32 pM | 16 pM | 2.6 pM |  |  |  | 
COC(=O)NC(C(=O)N1CCC[C@H]1c1ncc(-c2ccc3c(c2)cc2n3C(c3ccc4c(c3)OC(C)CC4)Oc3cc(-c4cnc([C@@H]5CCCN5C(=O)[C@@H](NC(=O)OC)C(C)C)[nH]4)cc(F)c3-2)[nH]1)C1CCOC(C)(C)C1 (single isomer, unassigned) [Compound 64] |  | 60 pM | 26 pM | 2.7 pM |  | 4 pM |  | 
COC(=O)NC(C(=O)N1[C@@H]2C[C@@H]2C[C@H]1c1ncc(-c2ccc3c(c2)cc2n3C(c3ccc4c(c3)CCCO4)Oc3cc(-c4cnc([C@@H]5CCCN5C(=O)[C@@H](NC(=O)OC)C(C)C)[nH]4)cc(F)c3-2)[nH]1)C1C[C@@H](C)O[C@@H](C)C1 (single isomer, unassigned) [Compound 65] | 1.8 pM | 43 pM | 935 pM |  | 2.9 pM |  |  | 
COC(=O)NC(C(=O)N1[C@@H]2C[C@@H]2C[C@H]1c1ncc(-c2ccc3c(c2)cc2n3C(c3ccc4c(c3)OCCC4)Oc3cc(-c4cnc([C@@H]5CCCN5C(=O)[C@@H](NC(=O)OC)C(C)C)[nH]4)cc(F)c3-2)[nH]1)C1C[C@@H](C)O[C@@H](C)C1 (single isomer, unassigned) [Compound 68] | 2.3 pM | 5 pM | 16 pM | 1.8 pM |  |  |  | 
COC(=O)NC(C(=O)N1[C@@H]2C[C@@H]2C[C@H]1c1ncc(-c2ccc3c(c2)cc2n3C(c3ccc4c(c3)OCCC4)Oc3cc(-c4cnc([C@@H]5CCCN5C(=O)[C@@H](NC(=O)OC)C(C)C)[nH]4)cc(F)c3-2)[nH]1)C1CCOC(C)(C)C1 (single isomer, unassigned) [Compound 69] | 3.5 pM |  |  |  | 3.2 pM |  | 5 pM | 8 pM
COC(=O)NC(C(=O)N1[C@@H]2C[C@@H]2C[C@H]1c1ncc(-c2ccc3c(c2)cc2n3C(c3ccc4c(c3)OCCC4)Oc3cc(-c4cnc([C@@H]5CCCN5C(=O)[C@@H](NC(=O)OC)C(C)C)[nH]4)cc(F)c3-2)[nH]1)C1CCOC(C)(C)C1 (single isomer, unassigned) [Compound 70] |  | 6 pM | 12 pM | 2.8 pM |  | 2.7 pM |  | 
COC(=O)NC(C(=O)N1CCC[C@H]1c1ncc(-c2ccc3c(c2)cc2n3C(c3ccc4c(c3)OCCC4)Oc3cc(-c4cnc([C@@H]5CCCN5C(=O)[C@@H](NC(=O)OC)C(C)C)[nH]4)cc(F)c3-2)[nH]1)C1C[C@@H](C)O[C@@H](C)C1 (single isomer, unassigned) [Compound 76] | 3.2 pM | 12 pM | 4 pM | 2.5 pM |  |  |  | 
COC(=O)NC(C(=O)N1CCC[C@H]1c1ncc(-c2ccc3c(c2)cc2n3C(c3ccc4c(c3)OCCC4)Oc3cc(-c4cnc([C@@H]5CCCN5C(=O)[C@@H](NC(=O)OC)C(C)C)[nH]4)cc(F)c3-2)[nH]1)C1C[C@@H](C)O[C@H](C)C1 (single isomer, unassigned) [Compound 78] | 2.6 pM | 9 pM | 4 pM | 2.2 pM |  |  |  | 
COC(=O)NC(C(=O)N1CCC[C@H]1c1ncc(-c2ccc3c(c2)cc2n3C(c3ccc4c(c3)OCCC4)Oc3cc(-c4cnc([C@@H]5CCCN5C(=O)[C@@H](NC(=O)OC)C(C)C)[nH]4)cc(F)c3-2)[nH]1)C1CCOC(C)(C)C1 (single isomer, unassigned) [Compound 79] | 2.7 pM | 6 pM |  |  | 1.7 pM |  |  | 7 pM
COC(=O)NC(C(=O)N1CCC[C@H]1c1ncc(-c2ccc3c(c2)cc2n3C(c3ccc4c(c3)OCCC4)Oc3cc(-c4cnc([C@@H]5CCCN5C(=O)[C@@H](NC(=O)OC)C(C)C)[nH]4)cc(F)c3-2)[nH]1)C1CCOC(C)(C)C1 (single isomer, unassigned) [Compound 80] |  | 24 pM | 6 pM | 2.6 pM |  | 3.2 pM |  | 
COC(=O)NC(C(=O)N1[C@@H]2C[C@@H]2C[C@H]1c1ncc(-c2ccc3c(c2)cc2n3C(c3ccc4c(c3)OCCC4)Oc3cc(-c4cnc([C@@H]5CCCN5C(=O)[C@@H](NC(=O)OC)C(C)C)[nH]4)cc(F)c3-2)[nH]1)C1CCO[C@H](C)C1 (single isomer, unassigned) [Compound 82] | 2.1 pM | 3 pM | 4 pM | 1.7 pM |  |  |  | 
COC(=O)NC(C(=O)N1CCC[C@H]1c1ncc(-c2ccc3c(c2)cc2n3C(c3ccc4c(c3)OCCC4)Oc3cc(-c4cnc([C@@H]5CCCN5C(=O)[C@@H](NC(=O)OC)C(C)C)[nH]4)cc(C)c3-2)[nH]1)C1C[C@@H](C)O[C@@H](C)C1 (single isomer, unassigned) [Compound 86] | 2.7 pM | 28 pM | 7 pM | 3 pM |  |  |  | 
